According to patent publication US20230183640A1, “METABOLIC INHIBITORS WITH EFFICACY FOR INHIBITING SULFIDE PRODUCTION IN HARSH ENVIRONMENTS” (MC (US) 3 LLC, priority 2020, published 2023):

Assays:
[1] = test system: Desulfovibrio alaskensis 14563; assay: H2S and Log (Growth) efficacy against SRB, 96-Well Plate Method; type: cell-based
Protocol: (§1) A lyophilized Desulfovibrio alaskensis 14563, Desulfovibrio longus 51456, and Desulfovibrio gabonensis 700201 pure cultures received from ATCC were resuspended individually in 500 ul of MB 1250. Aseptically, the content was transferred to a 5-mL tube of MB1250 medium. The cultures were incubated in an anaerobic chamber at 30° C. for 72 hrs. Subsequently, an individual stock culture with a final concentration of 25% glycerol were prepared by adding equal volumes of culture and 50% glycerol. 1 ml of the cultures were then transferred to 2-ml cryogenic vials and stored at −80° C. The purity of the stock cultures was evaluated through PCR, by amplifying the 16S rDNA region, and thus, it was verified that the original ATCC sample was a pure culture. 48-hour cultures of ATCC Desulfovibrio alaskensis 14563, Desulfovibrio longus 51456, and Desulfovibrio gabonensis 700201 were prepared in an anaerobic chamber. Each culture was prepared as a 1:10 culture by taking 1 milliliter (mL) of a pure culture and inoculating 9 milliliters (mL) of fresh MB1250 media. The Desulfovibrio alaskensis 14563 and Desulfovibrio gabonensis 700201 were all grown at 30° C. and the Desulfovibrio longus 51456 culture was grown at 35° C.
After the 48-hour incubation, 600 microliters (μL) were taken from each culture and optical density (OD) was measured using a Thermofisher Spectronic 200 Spectrophotometer at 600 nm. Each culture was diluted to 0.05 OD600 in fresh MB1250 media and added to the 96 well plates. Edge wells were not used due to their inherent variability and evaporation of the media. Each of the components were added at their respective concentrations for a final volume of 500 μL per well. In Table 3, 6 and 7, the concentrations of the compound used for the experiments are listed. Each experiment was done with at least three replicates for different treatments and non-treatment controls. […] Plates were then sealed with a titer-top and placed into anaerobic boxes and incubated in an anaerobic incubator at 30° C.
At each time point, sulfide samples were taken, and enumeration plates were made. Enumeration plates were made to determine the log growth in each dosed sample. For this process, enumeration plates were prepared by adding 180 μL fresh media MB1250 containing 0.01 wt % ferrous ammonium sulfate. 20 μL was taken from each well of the challenge plates and transferred to the enumeration plates using a 20-200 μL multichannel pipette. Enumeration plates were mixed three times using the multichannel pipette and serial diluted down the plate tenfold (20 μL into 180 μL). This serial dilution process was repeated for all challenge plate rows giving a total of 6 enumeration plates.
After 7 days these enumeration plates were read. The ferrous ammonium sulfate in each plate would be converted to iron sulfide, changing wells with SRB growth from clear to black. By counting the number of black wells in a row, the log growth from the original well in the challenge plate can be determined.
To determine hydrogen sulfide production in each sample, sulfide samples were also taken from each challenge plate. From each well, 9 μL were taken and added to 60 μL of 2% zinc acetate with 0.02% acetic acid. Then, 180 μL of milliQ water was added. 60 μL of stock solution 1 containing 64% sulfuric acid, <1% Dimethyl-4-phenylenediamine (DMPD), water to 100% was added to each well on the plates. This was followed by 3 μL of stock solution 3 containing 50% Iron (III) chloride. All chemicals are ordered from Fisher Scientific and used as received. These were mixed three times and read after 15 minutes. The plates were read at 670 nm using a Biotek microplate reader. Absorbance readings were converted to mM using a standard curve and this was converted to parts per million using the molar mass of sulfur. The standard curves were made using sodium sulfide nonahydrate solutions to give final solutions of 0, 0.125, 0.25 0.5, 1.0, and 1.5 ppm.

[2] = test system: Desulfovibrio alaskensis 14563; assay: H2S and Log (Growth) efficacy, 10 mL Serum Vial Method; type: cell-based
Protocol: as §1
After the 48-hour incubation, 600 microliters (μL) were taken from the Desulfovibrio alaskensis 14563 culture and optical density (OD) was measured using a Thermofisher Spectronic 200 Spectrophotometer at 600 nm. Each culture was diluted to 0.05 OD600 in fresh MB1250 media and 5 mL of culture solution is transferred to 10 mL Vials and compound Cis stock solution is added. In Table 4 and 5, the concentrations of the compound C1 used for the experiments are listed. Each experiment was done with at least three replicates for different treatments and non-treatment controls. At 2 days, 3 days and 5 days, enumeration plates were made, and sulfide samples were taken in triplicate.
The enumerations were done in triplicate having 20 μL taken from each vial and placing them into 3 wells of first row in a 96-well plate. Then, the same serial dilution process was done with the test plate procedure as described in 96-well plate method. These enumerations were read after 7 days of growth at 30° C. in the anaerobic chamber. For the sulfide assay, 9 μL were taken from each vial and placed in 3 wells with 2% zinc acetate. The assay procedure was the same as described in 96-well plate method.

Compound: O=C(CN1C(=O)c2cccc3cccc(c23)C1=O)NO [C1]
- H2S ([1]; 3 days, 6.4 PPM): 15.5 PPM
- Log (Growth) ([1]; 3 days, 6.4 PPM): 2.7
- H2S ([1]; 3 days, 12.8 PPM): 13.5 PPM
- Log (Growth) ([1]; 3 days, 12.8 PPM): 2.0
- H2S ([1]; 3 days, 25.6 PPM): 15.1 PPM
- Log (Growth) ([1]; 3 days, 25.6 PPM): 0.0
- H2S ([1]; 3 days, 51.3 PPM): 15.4 PPM
- Log (Growth) ([1]; 3 days, 51.3 PPM): 0.0
- H2S ([1]; 3 days, 102.5 PPM): 13.6 PPM
- Log (Growth) ([1]; 3 days, 102.5 PPM): 0.3
- H2S ([1]; 3 days, 205.0 PPM): 12.7 PPM
- Log (Growth) ([1]; 3 days, 205.0 PPM): 0.3
- H2S ([1]; 6 days, 6.4 PPM): 18.1 PPM
- Log (Growth) ([1]; 6 days, 6.4 PPM): 3.3
- H2S ([1]; 6 days, 12.8 PPM): 23.5 PPM
- Log (Growth) ([1]; 6 days, 12.8 PPM): 2.7
- H2S ([1]; 6 days, 25.6 PPM): 8.8 PPM
- Log (Growth) ([1]; 6 days, 25.6 PPM): 1.0
- H2S ([1]; 6 days, 51.3 PPM): 8.3 PPM
- Log (Growth) ([1]; 6 days, 51.3 PPM): 0.0
- H2S ([1]; 6 days, 102.5 PPM): 8.7 PPM
- Log (Growth) ([1]; 6 days, 102.5 PPM): 0.0
- H2S ([1]; 6 days, 205.0 PPM): 9.0 PPM
- Log (Growth) ([1]; 6 days, 205.0 PPM): 0.0
- H2S ([2]; 2 days, 0.09 PPM): 233.1 PPM
- Log (Growth) ([2]; 2 days, 0.09 PPM): 7.9
- H2S ([2]; 2 days, 0.19 PPM): 202.1 PPM
- Log (Growth) ([2]; 2 days, 0.19 PPM): 8.0
- H2S ([2]; 2 days, 0.38 PPM): 170.4 PPM
- Log (Growth) ([2]; 2 days, 0.38 PPM): 7.8
- H2S ([2]; 2 days, 0.75 PPM): 121.6 PPM
- Log (Growth) ([2]; 2 days, 0.75 PPM): 7.2
- H2S ([2]; 3 days, 0.75 PPM): 190.2 PPM
- Log (Growth) ([2]; 3 days, 0.75 PPM): 7.4
- H2S ([2]; 3 days, 1.5 PPM): 50.1 PPM
- Log (Growth) ([2]; 3 days, 1.5 PPM): 4.8
- H2S ([2]; 3 days, 3.0 PPM): 23.1 PPM
- Log (Growth) ([2]; 3 days, 3.0 PPM): 4.0
- H2S ([2]; 3 days, 6.0 PPM): 19.2 PPM
- Log (Growth) ([2]; 3 days, 6.0 PPM): 0.0
- H2S ([2]; 5 days, 0.75 PPM): 253.3 PPM
- Log (Growth) ([2]; 5 days, 0.75 PPM): 7.9
- H2S ([2]; 5 days, 1.5 PPM): 69.9 PPM
- Log (Growth) ([2]; 5 days, 1.5 PPM): 6.2
- H2S ([2]; 5 days, 3.0 PPM): 19.5 PPM
- Log (Growth) ([2]; 5 days, 3.0 PPM): 1.0
- H2S ([2]; 5 days, 6.0 PPM): 15 PPM
- Log (Growth) ([2]; 5 days, 6.0 PPM): 0.0
